In patent US20230200216A1, “ORGANIC LIGHT-EMITTING DEVICE” (CANON KABUSHIKI KAISHA, priority 2021, published 2023):

Assay: Sublimability: decomposition temperature (TG/DTA, 5% mass loss) minus sublimation temperature
Type: physicochemical
Conditions: 5% mass reduction, sublimation: Ar flow, vacuum 1×10^−1 Pa
Source text: Table 4 presents the results of comparisons in sublimability between exemplified compound RD21 serving as the first guest and compound 1 and between exemplary compound RD30 serving as the first guest and compound 2. As an evaluation of sublimability, comparisons are made of the temperature difference between the sublimation temperature and the decomposition temperature (ΔT=decomposition temperature−sublimation temperature). A larger temperature difference can be said to indicate higher sublimability. With regard to the decomposition temperature, TG/DTA measurement was performed, and the temperature at which a reduction in mass reached 5% was defined as the decomposition temperature. With regard to the sublimation temperature, the sublimation purification was performed by slowly increasing the temperature while allowing Ar to flow at a degree of vacuum of 1×10^−1 Pa, and the temperature at which a sufficient sublimation rate was reached was defined as the sublimation temperature.

| SMILES | ΔT = decomposition temperature − sublimation temperature [°C] |
| --- | --- |
| CC(C)(C)c1cc2cc(C(C)(C)C)cc3c4ccc5c6cc7c(-c8ccccc8)c8c9ccc%10c%11cc(C(C)(C)C)cc%12cc(C(C)(C)C)cc(c%13ccc(c8c(-c8ccccc8)c7cc6c6ccc(c(c1)c23)c4c65)c9c%13%10)c%12%11 [Compound 1] | 40 |
| c1ccc(-c2ccc(-c3ccccc3)c3c2-c2ccc4c5ccc6c7c(ccc(c8ccc-3c2c48)c75)-c2c(-c3ccc4ccccc4c3)ccc(-c3ccc4ccccc4c3)c2-6)cc1 [Compound 2] | 60 |
| c1ccc(-c2ccccc2-c2c3cc4c(cc3c(-c3ccccc3)c3c5ccc6c7cccc8cccc(c9ccc(c23)c5c69)c87)c2ccc3c5cccc6cccc(c7ccc4c2c37)c65)cc1 [Exemplified compound RD21] | 100 |
| c1ccc(-c2ccccc2-c2ccc(-c3ccccc3-c3ccccc3)c3c2-c2ccc4c5ccc6c7c(ccc(c8ccc-3c2c48)c75)-c2c(-c3ccccc3)ccc(-c3ccccc3)c2-6)cc1 [Exemplified compound RD30] | 130 |
